Experimental data reported in ChEMBL document CHEMBL1649524, “Resistance selection studies comparing the activity of razupenem (PTZ601) to vancomycin and linezolid against eight methicillin-resistant and two methicillin-susceptible Staphylococcus aureus strains” (2009).
≈ marks a conversion by molar mass, not a printed value.

Columns and labels:
Format in all cases: functional
Staphylococcus aureus [1] = assay: Antimicrobial activity against vancomycin-resistant Staphylococcus aureus 509 measured on day 20 by macrodilution method; conditions: Staphylococcus aureus, 509, 480 h
Staphylococcus aureus [2] = assay: Antimicrobial activity against vancomycin-resistant Staphylococcus aureus 509 measured on day 45 by macrodilution method
Staphylococcus aureus [3] = assay: Antimicrobial activity against heterogeneous vancomycin-intermediate Staphylococcus aureus 873 measured on day 15 by macrodilution method; conditions: Staphylococcus aureus, 873, 360 h
Staphylococcus aureus [4] = assay: Antimicrobial activity against vancomycin-intermediate Staphylococcus aureus 555 after 27 passages by macrodilution method
Staphylococcus aureus [5] = assay: Antimicrobial activity against heterogeneous vancomycin-intermediate Staphylococcus aureus 873 measured on day 35 by macrodilution method
Staphylococcus aureus [6] = assay: Antimicrobial activity against methicillin-resistant Staphylococcus aureus 525 measured on day 45 by macrodilution method
Staphylococcus aureus [7] = assay: Antimicrobial activity against vancomycin-intermediate Staphylococcus aureus 555 measured on day 10 by macrodilution method; conditions: Staphylococcus aureus, 555, 240 h
Staphylococcus aureus [8] = assay: Antimicrobial activity against methicillin-resistant Staphylococcus aureus 547 after 23 passages by macrodilution method
Staphylococcus aureus [9] = assay: Antimicrobial activity against heterogeneous vancomycin-intermediate Staphylococcus aureus 873 measured on day 20 by macrodilution method; conditions: Staphylococcus aureus, 873, 480 h
Staphylococcus aureus [10] = assay: Antimicrobial activity against methicillin-susceptible Staphylococcus aureus 543 measured on day 45 by macrodilution method
Staphylococcus aureus [11] = assay: Antimicrobial activity against methicillin-resistant Staphylococcus aureus 547 measured on day 15 by macrodilution method; conditions: Staphylococcus aureus, 547, 360 h
Staphylococcus aureus [12] = assay: Antimicrobial activity against vancomycin-resistant Staphylococcus aureus 510 measured on day 35 by macrodilution method
Staphylococcus aureus [13] = assay: Antimicrobial activity against vancomycin-resistant Staphylococcus aureus 510 measured on day 5 by macrodilution method; conditions: Staphylococcus aureus, 510, 120 h
Staphylococcus aureus [14] = assay: Antimicrobial activity against vancomycin-resistant Staphylococcus aureus 509 after 50 passages by macrodilution method
Staphylococcus aureus [15] = assay: Antimicrobial activity against vancomycin-resistant Staphylococcus aureus 510 measured on day 25 by macrodilution method; conditions: Staphylococcus aureus, 510, 600 h
Staphylococcus aureus [16] = assay: Antimicrobial activity against methicillin-susceptible Staphylococcus aureus 540 measured on day 20 by macrodilution method; conditions: Staphylococcus aureus, 540, 480 h
Staphylococcus aureus [17] = assay: Antimicrobial activity against vancomycin-intermediate Staphylococcus aureus 1287 measured on day 5 by macrodilution method; conditions: Staphylococcus aureus, 1287, 120 h
Staphylococcus aureus [18] = assay: Antimicrobial activity against vancomycin-intermediate Staphylococcus aureus 1287 after 18 passages by macrodilution method
Staphylococcus aureus [19] = assay: Antimicrobial activity against heterogeneous vancomycin-intermediate Staphylococcus aureus 168 measured on day 25 by macrodilution method; conditions: Staphylococcus aureus, 168, 600 h
Staphylococcus aureus [20] = assay: Antimicrobial activity against methicillin-susceptible Staphylococcus aureus 540 measured on day 5 by macrodilution method; conditions: Staphylococcus aureus, 540, 120 h
Staphylococcus aureus [21] = assay: Antimicrobial activity against methicillin-susceptible Staphylococcus aureus 543 after 50 passages by macrodilution method
Staphylococcus aureus [22] = assay: Antimicrobial activity against vancomycin-resistant Staphylococcus aureus 509 measured on day 30 by macrodilution method
Staphylococcus aureus [23] = assay: Antimicrobial activity against methicillin-resistant Staphylococcus aureus 547 measured on day 10 by macrodilution method; conditions: Staphylococcus aureus, 547, 240 h
Staphylococcus aureus [24] = assay: Antimicrobial activity against methicillin-susceptible Staphylococcus aureus 540 after 49 passages by macrodilution method
Staphylococcus aureus [25] = assay: Antimicrobial activity against methicillin-susceptible Staphylococcus aureus 543 measured on day 35 by macrodilution method

## C[C@H]1C=C(c2csc(SC3=C(C(=O)O)N4C(=O)[C@H]([C@@H](C)O)[C@H]4[C@H]3C)n2)CN1 [RAZUPENEM]
Staphylococcus aureus [1]
  MIC: 4 µg/mL (≈ 9.82 µM)
Staphylococcus aureus [2]
  MIC: 4 µg/mL (≈ 9.82 µM)
Staphylococcus aureus [3]
  MIC: 2 µg/mL (≈ 4.91 µM)
Staphylococcus aureus [4]
  MIC: 4 µg/mL (≈ 9.82 µM)
Staphylococcus aureus [5]
  MIC: 16 µg/mL (≈ 39.3 µM)
Staphylococcus aureus [6]
  MIC: 32 µg/mL (≈ 78.5 µM)
Staphylococcus aureus [7]
  MIC: 1 µg/mL (≈ 2.45 µM)
Staphylococcus aureus [8]
  MIC: 4 µg/mL (≈ 9.82 µM)
Staphylococcus aureus [9]
  MIC: 4 µg/mL (≈ 9.82 µM)
Staphylococcus aureus [10]
  MIC: 0.06 µg/mL (≈ 0.147 µM)
Staphylococcus aureus [11]
  MIC: 2 µg/mL (≈ 4.91 µM)
Staphylococcus aureus [12]
  MIC: 4 µg/mL (≈ 9.82 µM)
Staphylococcus aureus [13]
  MIC: 2 µg/mL (≈ 4.91 µM)
Staphylococcus aureus [14]
  MIC: 4 µg/mL (≈ 9.82 µM)
Staphylococcus aureus [15]
  MIC: 4 µg/mL (≈ 9.82 µM)
Staphylococcus aureus [16]
  MIC: 0.03 µg/mL (≈ 0.0736 µM)
Staphylococcus aureus [17]
  MIC: 0.25 µg/mL (≈ 0.613 µM)
Staphylococcus aureus [18]
  MIC: 0.5 µg/mL (≈ 1.23 µM)
Staphylococcus aureus [19]
  MIC: 8 µg/mL (≈ 19.6 µM)
Staphylococcus aureus [20]
  MIC: 0.016 µg/mL (≈ 0.0393 µM)
Staphylococcus aureus [21]
  MIC: 0.06 µg/mL (≈ 0.147 µM)
Staphylococcus aureus [22]
  MIC: 4 µg/mL (≈ 9.82 µM)
Staphylococcus aureus [23]
  MIC: 1 µg/mL (≈ 2.45 µM)
Staphylococcus aureus [24]
  MIC: 0.125 µg/mL (≈ 0.307 µM)
Staphylococcus aureus [25]
  MIC: 0.06 µg/mL (≈ 0.147 µM)
